Data on four compounds can be found in US20250034098A1, “CRYSTALLINE SUBSTITUTED PYRAZINES AS PGI2 RECEPTOR AGONISTS” (NIPPON SHINYAKU CO., LTD., priority 2017, published 2025).

Data set [1] in a line: Solvent suspending test of form-I crystal in different solvents (Test Example 2). The following applies: for Crystal form after 30 minutes at room temperature: stirring. The class given is physicochemical. The protocol:
The form-I crystal of the present invention was mixed with different solvents, and stirring was performed at room temperature for 30 minutes. The formed crystals were obtained by filtration, and the crystal forms were determined.

Data set [2] is described as follows: Stability test of crystal forms of Compound B (Test Example 1). Particulars: for thermodynamic stability of the crystal form: Test Example 1, storage at 90° C.; for crystal form transformation on storage: storage at 90° C.; for Crystal form after 14 days: stored at 90° C. The class given is physicochemical. The protocol:
Different crystal forms of Compound B were placed in glass bottles, respectively, and the glass bottles were hermetically sealed and stored at 90° C. Samples were taken out after 1 day, 5 days, and 14 days, and dissolved in methanol at a concentration of 1 mg/mL to determine related substances by HPLC. With respect to the crystals after 14 days, the crystal form was checked.

Another data set concerns the target PGI2 receptor (Homo sapiens, UniProt P43119). Particulars: cited from earlier work.
[3] abbreviates: 90° C., after 1 day, hermetically sealed glass bottle.
[4] abbreviates: 90° C., after 5 days, hermetically sealed glass bottle.
The mark [5] stands for this setting: 90° C., after 14 days, hermetically sealed glass bottle.
The mark [6] stands for this setting: hermetically sealed glass bottle.

Sequence of PGI2 receptor (P43119 whole entry, species assumed): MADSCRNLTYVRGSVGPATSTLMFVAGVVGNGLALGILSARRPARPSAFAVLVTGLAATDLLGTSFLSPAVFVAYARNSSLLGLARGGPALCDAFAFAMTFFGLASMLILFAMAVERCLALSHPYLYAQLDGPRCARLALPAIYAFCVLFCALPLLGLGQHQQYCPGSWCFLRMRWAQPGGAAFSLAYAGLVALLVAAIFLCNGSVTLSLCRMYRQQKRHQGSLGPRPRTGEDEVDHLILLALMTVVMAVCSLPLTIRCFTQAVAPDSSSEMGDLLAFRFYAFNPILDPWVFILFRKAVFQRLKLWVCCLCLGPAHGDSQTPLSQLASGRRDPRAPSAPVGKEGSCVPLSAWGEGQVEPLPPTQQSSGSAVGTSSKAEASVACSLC

As to `CC(C)N(CCCCOCC(=O)O)c1cnc(-c2ccccc2)c(-c2ccccc2)n1` [Form-I, 2-{4-[N-(5,6-diphenylpyrazin-2-yl)-N-isopropylamino]butyloxy}acetic acid], the “crystal form transformation when suspended” value in data set [1] (all the solvents, room temperature) is reported as “partially transformed into the form-II crystal of the present invention”. Moreover, the “Crystal form after 30 minutes at room temperature” value in data set [1] (solvent 2-propanol) is “Form-I + Form-II (1:10)”; in data set [1] (solvent cyclohexane), “Form-I + Form-II (1:1)”; in data set [1] (solvent toluene), “Form-I + Form-II (10:1)”; in data set [1] (solvent water) it was “Form-I + Form-II (10:1)”. The Appearance entry in data set [2] (setting [3]) was “No change”; in data set [2] (setting [4]), “No change”; in data set [2] (setting [5]), “No change”; in data set [2] (Before storage), “White crystal”. Besides, the “HPLC area (%)” value worked out at 99.8% in data set [2] (setting [3]), 99.8% in data set [2] (setting [4]), 99.6% in data set [2] (setting [5]) and 99.8% in data set [2] (Before storage). Moreover, in data set [2] (listed as form-I crystal), the “thermodynamic stability of the crystal form” value is given as “thermodynamically more stable”. Moreover, the “crystal form transformation on storage” value in data set [2] is reported as “gradually transformed into the form-II”. The “Crystal form after 14 days” value in data set [2] (setting [6]) was “Form-I + Form-II”.
For the compound `CC(C)N(CCCCOCC(=O)O)c1cnc(-c2ccccc2)c(-c2ccccc2)n1` [Form-II, 2-{4-[N-(5,6-diphenylpyrazin-2-yl)-N-isopropylamino]butyloxy}acetic acid], the “thermodynamic stability of the crystal form when suspended” value in data set [1] (various solvents at room temperature) is listed as “thermodynamically stable”. The Appearance entry in data set [2] (setting [3]) is “No change”; in data set [2] (setting [4]), “No change”; in data set [2] (setting [5]), “No change”; in data set [2] (Before storage), “Yellow crystal”. The “HPLC area (%)” value in data set [2] (setting [3]) was 100%; in data set [2] (setting [4]), 100%; in data set [2] (setting [5]) it was 99.9%; in data set [2] (Before storage) it was 100%. Also, the “thermodynamic stability of the crystal form” value in data set [2] is reported as “thermodynamically stable”; in data set [2] (listed as form-II crystal) it was “thermodynamically more stable”. Further, in data set [2] (setting [6]), the “Crystal form after 14 days” value is reported as “Form-II”.
Consider `CC(C)N(CCCCOCC(=O)O)c1cnc(-c2ccccc2)c(-c2ccccc2)n1` [Form-III, 2-{4-[N-(5,6-diphenylpyrazin-2-yl)-N-isopropylamino]butyloxy}acetic acid], for which the Appearance entry is listed as “No change” in data set [2] (setting [3]), “No change” in data set [2] (setting [4]), “No change” in data set [2] (setting [5]) and “Yellow crystal” in data set [2] (Before storage). Moreover, the “HPLC area (%)” value in data set [2] (setting [3]) came out at 99.9%; in data set [2] (setting [4]) it was 99.9%; in data set [2] (setting [5]), 99.7%; in data set [2] (Before storage), 99.9%. In addition, the “thermodynamic stability of the crystal form” value in data set [2] (listed as form-III crystal) is “thermodynamically unstable”. Also, in data set [2], the “crystal form transformation on storage” value is “gradually transformed into the form-II”. Besides, in data set [2] (setting [6]), the “Crystal form after 14 days” value is listed as “Form-II”.
For the compound `CC(C)N(CCCCOCC(=O)O)c1cnc(-c2ccccc2)c(-c2ccccc2)n1` [Compound B, 2-{4-[N-(5,6-diphenylpyrazin-2-yl)-N-isopropylamino]butyloxy}acetic acid], the “PGI2 receptor agonistic effect” value at PGI2 receptor is “excellent”.
